In ChEMBL document CHEMBL3600322, “Phenoxymethyl 1,3-oxazoles and 1,2,4-oxadiazoles as potent and selective agonists of free fatty acid receptor 1 (GPR40)” (Bioorg Med Chem Lett, 2015):
In brackets after ≈: the same amount, converted by molar mass.

Columns and labels:
[1] = molecular target: T1, Free fatty acid receptor 1 (Homo sapiens, UniProt O14842); test: Agonist activity at GPR40 (unknown origin) expressed in CHO cells at 5 uM by FLIPR calcium flux assay relative to GW9508; type: functional, cell-based
[2] = molecular target: T1, Free fatty acid receptor 1; test: Agonist activity at GPR40 (unknown origin) expressed in CHO cells by FLIPR calcium flux assay in presence of 0.1% bovine serum albumin; type: functional, cell-based
CYP2C9 [3] = molecular target: T2, CYP2C9 (Homo sapiens, UniProt P11712); test: Inhibition of CYP2C9 (unknown origin) at 120 uM by luminescent readout-based method; type: ADME
[4] = molecular target: T3, Free fatty acid receptor 2 (Homo sapiens, UniProt O15552); test: Agonist activity at GPR43 (unknown origin) expressed in CHO cells by FLIPR calcium flux assay in presence of 0.1% bovine serum albumin; type: functional, cell-based
T3 sequence (O15552 whole entry): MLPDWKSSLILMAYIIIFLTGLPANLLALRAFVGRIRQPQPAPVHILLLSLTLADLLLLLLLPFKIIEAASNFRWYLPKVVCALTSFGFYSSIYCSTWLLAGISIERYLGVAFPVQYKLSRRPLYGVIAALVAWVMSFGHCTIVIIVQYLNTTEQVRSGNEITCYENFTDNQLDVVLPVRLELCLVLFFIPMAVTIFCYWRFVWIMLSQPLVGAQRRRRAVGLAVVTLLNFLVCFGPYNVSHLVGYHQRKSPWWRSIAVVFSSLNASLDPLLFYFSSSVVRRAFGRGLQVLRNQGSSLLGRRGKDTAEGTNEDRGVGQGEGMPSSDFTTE

[5] = Kinetic solubility of the compound in phosphate-buffered saline at pH 7.4 by filter microplate technique; type: physicochemical; conditions: read-out: Kinetic_solubility
[6] = molecular target: T4, Free fatty acid receptor 3 (Homo sapiens, UniProt O14843); test: Agonist activity at GPR41 (unknown origin) expressed in CHO cells by FLIPR calcium flux assay in presence of 0.1% bovine serum albumin; type: functional, cell-based
T4 sequence (O14843 whole entry): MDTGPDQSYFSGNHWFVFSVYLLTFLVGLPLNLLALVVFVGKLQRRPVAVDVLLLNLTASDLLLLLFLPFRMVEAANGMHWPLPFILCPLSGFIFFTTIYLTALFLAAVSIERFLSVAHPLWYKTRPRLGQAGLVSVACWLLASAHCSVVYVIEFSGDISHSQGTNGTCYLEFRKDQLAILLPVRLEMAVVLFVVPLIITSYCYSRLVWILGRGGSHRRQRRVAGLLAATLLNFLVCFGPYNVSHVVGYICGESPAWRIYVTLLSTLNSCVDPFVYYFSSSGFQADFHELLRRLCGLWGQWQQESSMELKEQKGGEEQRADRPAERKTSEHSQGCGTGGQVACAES

[7] = Apparent permeability from apical to basolateral side in human Caco2 cells assessed […] at 10 uM by HPLC-MS analysis; type: ADME, cell-based; conditions: Caco-2
CYP1A2 = molecular target: T5, CYP1A2 (Homo sapiens, UniProt P05177); test: Inhibition of CYP1A2 (unknown origin) at 5 uM by luminescent readout-based method; type: ADME
T5 sequence (P05177 whole entry): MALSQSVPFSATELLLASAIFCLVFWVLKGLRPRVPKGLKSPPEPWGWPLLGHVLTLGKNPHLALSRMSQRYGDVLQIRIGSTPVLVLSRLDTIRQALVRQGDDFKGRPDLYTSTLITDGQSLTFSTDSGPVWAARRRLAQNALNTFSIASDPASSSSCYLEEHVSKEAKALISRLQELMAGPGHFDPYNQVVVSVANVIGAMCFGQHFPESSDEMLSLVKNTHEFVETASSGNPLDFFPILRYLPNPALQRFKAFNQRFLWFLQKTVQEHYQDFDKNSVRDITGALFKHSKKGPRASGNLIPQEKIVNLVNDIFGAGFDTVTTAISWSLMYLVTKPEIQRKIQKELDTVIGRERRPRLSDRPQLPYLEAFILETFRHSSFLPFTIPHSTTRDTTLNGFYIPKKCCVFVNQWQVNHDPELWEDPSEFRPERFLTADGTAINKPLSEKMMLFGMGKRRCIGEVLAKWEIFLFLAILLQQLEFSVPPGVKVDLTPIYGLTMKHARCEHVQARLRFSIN

CYP2D6 = CYP2D6 (Homo sapiens, UniProt P10635); test: Inhibition of CYP2D6 (unknown origin) at 5 uM by luminescent readout-based method; type: ADME
[8] = molecular target: T6, Free fatty acid receptor 4 (Homo sapiens, UniProt Q5NUL3); test: Agonist activity at GPR120 (unknown origin) expressed in CHO cells by FLIPR calcium flux assay in presence of 0.1% bovine serum albumin; type: functional, cell-based
T6 sequence (Q5NUL3 whole entry): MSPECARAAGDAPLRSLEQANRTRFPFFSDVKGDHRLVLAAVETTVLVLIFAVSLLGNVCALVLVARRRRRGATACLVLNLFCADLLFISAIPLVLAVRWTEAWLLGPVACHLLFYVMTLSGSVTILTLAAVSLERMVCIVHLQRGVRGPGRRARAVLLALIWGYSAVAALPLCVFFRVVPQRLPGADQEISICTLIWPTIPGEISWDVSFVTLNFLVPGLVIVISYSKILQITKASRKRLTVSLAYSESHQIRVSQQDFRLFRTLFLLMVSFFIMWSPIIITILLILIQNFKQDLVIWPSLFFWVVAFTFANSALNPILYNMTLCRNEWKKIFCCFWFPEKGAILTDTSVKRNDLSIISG

CYP3A4 = CYP3A4 (Homo sapiens, UniProt P08684); test: Inhibition of CYP3A4 (unknown origin) at 5 uM by luminescent readout-based method; type: ADME
[9] = Plasma protein binding in human at 1 uM after 5 hrs by HPLC-MS/MS analysis; type: ADME, cell-free; conditions: read-out: PPB (converted)
CYP2C19 = CYP2C19 (Homo sapiens, UniProt P33261); test: Inhibition of CYP2C19 (unknown origin) at 5 uM by luminescent readout-based method; type: ADME
CYP2C9 [10] = molecular target: T2, CYP2C9; test: Inhibition of CYP2C9 (unknown origin) at 5 uM by luminescent readout-based method; type: ADME
[11] = Half life in BALB/c mouse liver microsomes at 2 uM by HPLC-MS analysis; type: ADME

T1 sequence (O14842 whole entry): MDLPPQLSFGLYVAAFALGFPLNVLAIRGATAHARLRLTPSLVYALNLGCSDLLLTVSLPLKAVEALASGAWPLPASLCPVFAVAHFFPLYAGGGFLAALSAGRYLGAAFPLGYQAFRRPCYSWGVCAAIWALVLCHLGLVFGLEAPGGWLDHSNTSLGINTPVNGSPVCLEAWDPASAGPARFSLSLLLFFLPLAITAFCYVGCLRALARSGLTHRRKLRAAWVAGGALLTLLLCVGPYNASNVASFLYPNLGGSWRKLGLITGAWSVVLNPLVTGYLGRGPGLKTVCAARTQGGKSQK
T2 sequence (P11712 whole entry): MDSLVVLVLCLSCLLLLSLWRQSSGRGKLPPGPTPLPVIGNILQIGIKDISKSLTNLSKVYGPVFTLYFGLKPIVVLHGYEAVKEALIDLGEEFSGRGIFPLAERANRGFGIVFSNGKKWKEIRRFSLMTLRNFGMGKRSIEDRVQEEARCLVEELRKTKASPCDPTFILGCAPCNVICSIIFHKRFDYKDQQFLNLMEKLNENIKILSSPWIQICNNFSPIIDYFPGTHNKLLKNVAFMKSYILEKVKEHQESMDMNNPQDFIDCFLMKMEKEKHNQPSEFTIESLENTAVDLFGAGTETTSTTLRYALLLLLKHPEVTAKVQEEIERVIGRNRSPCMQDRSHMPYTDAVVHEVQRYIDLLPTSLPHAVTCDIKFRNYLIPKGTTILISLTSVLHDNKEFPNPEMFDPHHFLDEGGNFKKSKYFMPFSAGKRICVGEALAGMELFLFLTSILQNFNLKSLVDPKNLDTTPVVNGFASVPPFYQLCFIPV
CYP2C19, sequence (P33261 whole entry): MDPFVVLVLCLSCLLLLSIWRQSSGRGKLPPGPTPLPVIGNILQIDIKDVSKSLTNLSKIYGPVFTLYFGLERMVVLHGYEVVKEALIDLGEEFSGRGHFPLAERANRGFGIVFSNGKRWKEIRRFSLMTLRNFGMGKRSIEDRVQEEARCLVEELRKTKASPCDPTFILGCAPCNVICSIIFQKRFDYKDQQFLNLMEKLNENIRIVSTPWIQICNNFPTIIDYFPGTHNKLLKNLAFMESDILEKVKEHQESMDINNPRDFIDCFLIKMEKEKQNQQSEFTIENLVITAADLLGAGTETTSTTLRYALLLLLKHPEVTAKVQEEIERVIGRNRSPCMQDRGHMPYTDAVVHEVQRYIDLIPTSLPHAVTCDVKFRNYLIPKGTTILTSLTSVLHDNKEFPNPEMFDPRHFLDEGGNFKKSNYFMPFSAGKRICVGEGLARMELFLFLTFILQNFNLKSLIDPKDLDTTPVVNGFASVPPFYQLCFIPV
CYP2D6, sequence (P10635 whole entry): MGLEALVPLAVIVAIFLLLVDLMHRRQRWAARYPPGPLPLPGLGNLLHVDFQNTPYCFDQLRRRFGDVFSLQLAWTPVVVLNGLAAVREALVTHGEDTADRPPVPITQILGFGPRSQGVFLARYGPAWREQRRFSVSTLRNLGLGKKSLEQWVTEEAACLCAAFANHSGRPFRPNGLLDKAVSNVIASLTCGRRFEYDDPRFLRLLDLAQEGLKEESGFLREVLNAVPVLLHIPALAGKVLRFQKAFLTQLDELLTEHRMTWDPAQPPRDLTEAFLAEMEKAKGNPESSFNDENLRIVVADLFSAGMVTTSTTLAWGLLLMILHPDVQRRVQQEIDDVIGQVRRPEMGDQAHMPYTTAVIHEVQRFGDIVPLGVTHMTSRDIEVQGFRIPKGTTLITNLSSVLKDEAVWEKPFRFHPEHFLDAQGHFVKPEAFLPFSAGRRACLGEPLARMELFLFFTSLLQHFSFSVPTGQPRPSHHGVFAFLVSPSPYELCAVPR
CYP3A4, sequence (P08684 whole entry): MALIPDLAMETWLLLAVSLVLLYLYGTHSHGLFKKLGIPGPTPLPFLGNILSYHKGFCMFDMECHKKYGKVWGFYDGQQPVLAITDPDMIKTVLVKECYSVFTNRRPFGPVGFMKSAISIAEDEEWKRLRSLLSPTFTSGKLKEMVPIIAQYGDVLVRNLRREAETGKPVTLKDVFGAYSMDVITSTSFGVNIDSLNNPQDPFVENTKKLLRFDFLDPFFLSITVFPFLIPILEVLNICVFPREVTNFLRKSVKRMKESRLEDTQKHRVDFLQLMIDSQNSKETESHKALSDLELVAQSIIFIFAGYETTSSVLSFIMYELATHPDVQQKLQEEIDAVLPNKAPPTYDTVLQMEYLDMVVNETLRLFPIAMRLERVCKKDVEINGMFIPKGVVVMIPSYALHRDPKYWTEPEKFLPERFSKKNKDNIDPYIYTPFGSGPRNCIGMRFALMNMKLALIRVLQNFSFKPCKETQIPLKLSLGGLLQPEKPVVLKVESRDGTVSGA

O=C(O)CCc1ccc(OCc2nc(-c3cccc(C(F)(F)F)c3)no2)c(Cl)c1
Efficacy [1]: 22% | EC50 [2]: 30100 nM

O=C(O)CCc1ccc(OCc2coc(-c3cccc(Cl)c3)n2)cc1
Efficacy [1]: 106% | EC50 [2]: 160 nM

Cc1cccc(-c2noc(COc3ccc(CCC(=O)O)cc3Cl)n2)c1
Efficacy [1]: 54% | EC50 [2]: 4580 nM

O=C(O)CCc1ccc(OCc2nc(-c3ccccc3)no2)c(Cl)c1
Efficacy [1]: 95% | EC50 [2]: 13100 nM

COc1cccc(-c2noc(COc3ccc(CCC(=O)O)cc3)n2)c1
Efficacy [1]: 81% | EC50 [2]: 2670 nM

O=C(O)CCc1ccc(OCc2coc(-c3cccc(F)c3)n2)cc1
Efficacy [1]: 99% | EC50 [2]: 560 nM

CC(Oc1ccc(CCC(=O)O)cc1)c1nc(-c2ccc(Cl)cc2)no1 (stereo not drawn)
Efficacy [1]: 68% | EC50 [2]: 500 nM

OC(Cn1cncn1)(Cn1cncn1)c1ccc(F)cc1F [FLUCONAZOLE]
inhibition at 120 µM (CYP2C9 [3]): 89.1%

O=C(O)Cc1ccc(OCc2nc(-c3cccc(Cl)c3)no2)cc1
Efficacy [1]: 69% | EC50 [2]: 18800 nM

CC(Oc1ccc(CCC(=O)O)cc1)c1nc(-c2ccccc2)no1 (stereo not drawn)
Efficacy [1]: 109% | EC50 [2]: 2390 nM

O=C(O)CCc1ccc(OCc2nc(-c3ccc(Cl)cc3)no2)cc1
EC50 [4]: > 10000 nM | solubility kinetic [5]: 214 µM (≈ 76.8 µg/mL) | EC50 [6]: > 10000 nM | Efficacy [1]: 84% | Papp A→B at 10 µM [7]: 2.1 ×10⁻⁶ cm/s | inhibition at 5 µM (CYP1A2): 25.9% | EC50 [2]: 540 nM | inhibition at 5 µM (CYP2D6): -5.8% | EC50 [8]: > 10000 nM | inhibition at 5 µM (CYP3A4): 50.1% | fraction unbound at 5 h, 1 µM [9]: 0.001 | inhibition at 5 µM (CYP2C19): 31.6% | inhibition at 5 µM (CYP2C9 [10]): 16.2% | half-life at 2 µM [11]: 12.1 h

CC(Oc1ccc(CCC(=O)O)cc1)c1nc(-c2cccs2)no1 (stereo not drawn)
Efficacy [1]: 94% | EC50 [2]: 4000 nM

O=C(O)CCc1ccc(OCc2nc(-c3cccs3)no2)cc1
Efficacy [1]: 59% | EC50 [2]: 2570 nM

O=C(O)CCc1ccc(OCc2noc(-c3ccccc3)n2)cc1
Efficacy [1]: 42% | EC50 [2]: 2650 nM

O=C(O)CCc1ccc(OCc2coc(-c3ccccc3)n2)cc1
Efficacy [1]: 98% | EC50 [2]: 700 nM

O=C(O)CCc1ccc(OCc2ncc(-c3ccccc3)o2)cc1
Efficacy [1]: 58% | EC50 [2]: 1600 nM
